Assay results reported in PMC10850047, “Exploring the impact of PEGylation on pharmacokinetics: a size-dependent effect of polyethylene glycol on prostate-specific membrane antigen inhibitors” (EJNMMI Research, 2024).
Like-named read-outs stand apart in the source and are kept apart here.

Tests used:
LNCaP tumors = assay: Micro-PET/CT blocking experiment with 2-PMPA, LNCaP tumor model; type: in vivo, mice; settings: 40 nmol 2-PMPA 30 min before radioligand, static scan 60 min later
Procedure: (§1) To perform imaging studies, the male mice bearing LNCaP tumors were injected with the corresponding radioligand (~ 2.5 MBq; 100 μL) via their tail veins. The micro-PET/CT scans (Inveon PET, Siemens) were conducted at 10, 30, 60, and 120 min after injection. The mice were anesthetized and maintained under 2% isoflurane in oxygen at a flow rate of 2 L/min during the 2-h imaging study. First, a 10 min static PET imaging acquisition was carried out, followed by a 10 min CT scan for localization and attenuation correction. Data analysis was performed using Inveon Research Workplace software. For PC3-PIP tumor model, the imaging studies were performed with micro-PET/SPECT/CT (Inliview-3000B, Novel Medical). Data analysis was performed using Nmsoft-Al ws v1.7–1 software.
(§2) To evaluate the specificity of radioligands, blocking experiments were performed. In brief, 40 nmol of the PSMA inhibitor 2-PMPA was administered, followed by the injection of approximately 2.6 MBq of radioligands after 30 min. Then a static scan of micro-PET/CT was performed 60 min later.

[1] = test system: LNCaP tumor-bearing NOD/SCID mice; settings: mouse, in vivo
PC3-PIP tumors [2] = assay: Micro-PET/CT blocking experiment with 2-PMPA, PC3-PIP tumor model; type: in vivo, mice; settings: identical methodology
Procedure: as §1, §2

[3] = Radiochemical stability in human serum at 37 °C; type: in vitro ADME; settings: 2 h
Procedure: (§3) The radiochemical purity of samples incubated in PBS at each time point was determined using RP-HPLC. For the samples in human serum, a pretreatment step was applied. Briefly, the human serum samples underwent precipitation with acetonitrile, and the radiochemical purity of each supernatant aliquot was determined using RP-HPLC after centrifugation for 5 min at 10,000 rpm. The experiments were performed in triplicate.

[4] = test system: PC3-PIP tumor-bearing balb/c-nu mice; assay: Biodistribution in PC3-PIP tumor model; type: in vivo; settings: mean ± SD (n=5)
Procedure: All animal experiments were performed with the approval of the institutional animal ethics committee. Male NOD/SCID mice (5 − 6 weeks old) implanted with LNCaP cells were used for imaging and biodistribution experiments as previously described. The mice were imaged or used in biodistribution studies once the tumor grew to 8 − 10 mm in diameter over a period of 4 − 5 weeks. At the same time, male balb/c-nu mice (5 − 6 weeks old) implanted with PC3-PIP cells were used as an alternative tumor model for imaging and biodistribution experiments.
To conduct biodistribution studies, male mice bearing LNCaP or PC3-PIP tumors with an average body weight of approximately 20 ± 5 g and a tumor diameter of 8 − 10 mm were administered a bolus injection of 2.5 MBq of the corresponding radioligand via the tail vein. After 30, 60, and 120 min, the mice were anesthetized with isoflurane and subsequently euthanized by CO2 asphyxiation. Blood was drawn, and the organs of interest were promptly harvested, blotted dry, and weighed. The radioactivity of the collected mouse organs was measured and expressed as the percentage of the injected dose per gram of tissue (%ID/g). Each group consisted of at least five mice.

LNCaP cells = assay: Uptake and internalization in LNCaP cells; type: cell-based, human; settings: 120 min incubation, normalized to 10^6 cells
Procedure: LNCaP prostate cancer cell line obtained from the American Type Culture Collection (ATCC, Manassas, VA) was used for cell affinity studies. […] The supernatant was disposed, and the cell pellet was resuspended in a culture medium, and LNCaP cells (150,000 cells/well) were counted with a hemocytometer and seeded in poly-L-lysine-coated 24-well plates used in cell binding studies. The cells were then allowed to grow at 37 °C for 48 h. PC3-PIP cells provided by Professor Xiaoyuan Chen (Singapore) require additional Puromycin (2 µg/ml) in addition to the appealed culture conditions.

[5] = Radiochemical stability in PBS at 37 °C; type: physicochemical; settings: 2 h
Procedure: as §3

[6] = test system: LNCaP tumor-bearing NOD/SCID mice; assay: Biodistribution in LNCaP tumor model
PSMA = biological target: T1, PSMA (Homo sapiens, UniProt Q04609); assay: Competitive cell binding assay against [68Ga]Ga-PSMA-11 on LNCaP cells; settings: competition with [68Ga]Ga-PSMA-11, natGa-labeled standards, 1 h 37 °C
T1 construct: host or cells: LNCaP
T1 sequence (Q04609 whole entry): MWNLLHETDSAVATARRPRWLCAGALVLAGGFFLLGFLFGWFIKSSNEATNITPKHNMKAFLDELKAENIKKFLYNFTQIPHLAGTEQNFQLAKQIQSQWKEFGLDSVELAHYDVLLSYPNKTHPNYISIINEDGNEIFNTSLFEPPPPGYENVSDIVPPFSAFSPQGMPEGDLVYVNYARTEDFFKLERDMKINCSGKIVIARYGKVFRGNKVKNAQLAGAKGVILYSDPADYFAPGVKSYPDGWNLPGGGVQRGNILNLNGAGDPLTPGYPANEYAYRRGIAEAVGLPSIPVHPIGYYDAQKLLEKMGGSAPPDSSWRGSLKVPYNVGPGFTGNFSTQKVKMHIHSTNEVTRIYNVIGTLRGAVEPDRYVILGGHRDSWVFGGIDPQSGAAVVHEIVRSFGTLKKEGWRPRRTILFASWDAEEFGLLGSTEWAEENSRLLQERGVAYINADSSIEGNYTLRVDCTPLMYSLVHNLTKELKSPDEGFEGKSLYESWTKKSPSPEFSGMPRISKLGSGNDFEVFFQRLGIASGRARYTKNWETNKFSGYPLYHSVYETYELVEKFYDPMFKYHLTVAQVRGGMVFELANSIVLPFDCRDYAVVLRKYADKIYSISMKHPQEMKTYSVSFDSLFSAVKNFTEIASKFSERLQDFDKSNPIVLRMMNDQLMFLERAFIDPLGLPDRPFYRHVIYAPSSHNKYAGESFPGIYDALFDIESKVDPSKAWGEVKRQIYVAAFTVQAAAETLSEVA
Procedure: LNCaP prostate cancer cell line obtained from the American Type Culture Collection (ATCC, Manassas, VA) was used for cell affinity studies. The cells were grown in a meilunbio RPMI 1640 medium (ATCC modified) supplemented with 10% fetal bovine serum and 1% streptomycin/penicillin (Thermo Fisher Scientific, USA) at 37 °C in a humidified 5% CO2 atmosphere. Two days (48 ± 2 h) prior to in vitro experiments, the cells were harvested using trypsin-ethylenediaminetetraacetic acid (EDTA; 0.25% trypsin, 0.02% EDTA) in PBS and centrifuged. The supernatant was disposed, and the cell pellet was resuspended in a culture medium, and LNCaP cells (150,000 cells/well) were counted with a hemocytometer and seeded in poly-L-lysine-coated 24-well plates used in cell binding studies. The cells were then allowed to grow at 37 °C for 48 h. PC3-PIP cells provided by Professor Xiaoyuan Chen (Singapore) require additional Puromycin (2 µg/ml) in addition to the appealed culture conditions. Detailed information regarding uptake and internalization experiments can be found in the previous report.
In order to determine the binding affinity, a competitive cell binding assay was performed. […] The total radioactivity in each well was measured with a gamma counter. […]

PC3-PIP tumors [7] = assay: Micro-SPECT/CT imaging of 177Lu-labeled ligands in PC3-PIP tumor model; type: in vivo; settings: balb/c-nu mice, scans 1-168 h
Procedure: as §1
Balb/c-nu mice carrying PC3-PIP tumors were chosen for the micro-SPECT/CT imaging investigation of [^177Lu]Lu-PP4-WD and [^177Lu]Lu-PP8-WD (see Additional file 1: Figure S8).

With O=C([O-])CN1CCN(CC(=O)[O-])CCN(CC(=O)NCCOCCOCCOCCOCCOCCOCCOCCOCCNC(=O)CN(CCCC[C@H](NC(=O)N[C@@H](CCC(=O)O)C(=O)O)C(=O)O)C(=O)C2c3ccccc3-c3ccccc32)CCN(CC(=O)[O-])CC1.[68Ga+3] [[^68Ga]Ga-PP8-WD] the “Radioactivity upon blocking with 2-PMPA” value (LNCaP tumors) was “substantially reduced radioactivity”, the “Renal uptake reduced by a factor compared to [68Ga]Ga-Flu-1” value [1] was 20 and the “Renal uptake, fold less compared to [68Ga]Ga-Flu-1” value [1] was “fivefold”. It also gave a Tumor uptake ([1]; 0.5 h) of 16.18 ± 2.53 %ID/g, a Tumor uptake ([1]; 1 h) of 18.64 ± 2.20 %ID/g and a Tumor uptake ([1]; 2 h) of 17.12 ± 2.57 %ID/g. The “Outcome of blocking imaging with 2-PMPA” value (PC3-PIP tumors [2]) was “in concordance with those observed in the LNCaP tumor model”, the “Radiochemical purity after incubation in human serum” value [3] was 96.69 ± 0.21% and the Blood uptake ([4]; 30 min p.i.) was 5.2±0.77 %ID/g. It also gave a Bone uptake ([4]; 30 min p.i.) of 1.21±0.57 %ID/g, a Brain uptake ([4]; 30 min p.i.) of 0.13±0.05 %ID/g and a Heart uptake ([4]; 30 min p.i.) of 1.21±0.19 %ID/g. It also gave a Kidney uptake ([4]; 30 min p.i.) of 11.38±3.15 %ID/g, a Liver uptake ([4]; 30 min p.i.) of 1.11±0.10 %ID/g and a Lung uptake ([4]; 30 min p.i.) of 2.64±0.23 %ID/g. For the same compound, the Muscle uptake ([4]; 30 min p.i.) was 0.45±0.06 %ID/g, the Salivary uptake ([4]; 30 min p.i.) was 1.23±0.17 %ID/g and the “Small int (small intestine) uptake” value ([4]; 30 min p.i.) was 0.87±0.18 %ID/g. It also gave a Spleen uptake ([4]; 30 min p.i.) of 1.39±0.26 %ID/g, a Stomach uptake ([4]; 30 min p.i.) of 0.83±0.17 %ID/g and a Tumor uptake ([4]; 30 min p.i.) of 12.81±4.48 %ID/g. The Blood uptake ([4]; 60 min p.i.) was 3.89±0.18 %ID/g, the Bone uptake ([4]; 60 min p.i.) was 1.26±0.07 %ID/g and the Brain uptake ([4]; 60 min p.i.) was 0.12±0.02 %ID/g. The Heart uptake ([4]; 60 min p.i.) was 1.09±0.12 %ID/g, the Kidney uptake ([4]; 60 min p.i.) was 4.52±1.51 %ID/g and the Liver uptake ([4]; 60 min p.i.) was 1.24±0.16 %ID/g. It also gave a Lung uptake ([4]; 60 min p.i.) of 2.25±0.13 %ID/g, a Muscle uptake ([4]; 60 min p.i.) of 0.52±0.07 %ID/g and a Salivary uptake ([4]; 60 min p.i.) of 1.49±0.37 %ID/g. The “Small int (small intestine) uptake” value ([4]; 60 min p.i.) was 0.92±0.23 %ID/g, the Spleen uptake ([4]; 60 min p.i.) was 1.30±0.21 %ID/g and the Stomach uptake ([4]; 60 min p.i.) was 0.98±0.09 %ID/g. It also gave a Tumor uptake ([4]; 60 min p.i.) of 15.21 ± 3.33 %ID/g, a Blood uptake ([4]; 120 min p.i.) of 3.12±0.48 %ID/g and a Bone uptake ([4]; 120 min p.i.) of 1.62±0.13 %ID/g. It also gave a Brain uptake ([4]; 120 min p.i.) of 0.13±0.03 %ID/g, a Heart uptake ([4]; 120 min p.i.) of 0.94±0.16 %ID/g and a Kidney uptake ([4]; 120 min p.i.) of 2.74±0.38 %ID/g. It also gave a Liver uptake ([4]; 120 min p.i.) of 1.38±0.19 %ID/g, a Lung uptake ([4]; 120 min p.i.) of 2.16±0.14 %ID/g and a Muscle uptake ([4]; 120 min p.i.) of 0.43±0.11 %ID/g. For the same compound, the Salivary uptake ([4]; 120 min p.i.) was 1.26±0.27 %ID/g, the “Small int (small intestine) uptake” value ([4]; 120 min p.i.) was 0.89±0.27 %ID/g and the Spleen uptake ([4]; 120 min p.i.) was 0.96±0.14 %ID/g. The Stomach uptake ([4]; 120 min p.i.) was 0.79±0.08. %ID/g, the Tumor uptake ([4]; 120 min p.i.) was 14.3±5.37 %ID/g and the “Internalization in LNCaP cells” value (LNCaP cells) was 5.72 ± 0.95%. The “Uptake in LNCaP cells” value (LNCaP cells) was 10.16 ± 1.87%, the “Radiochemical purity after incubation in PBS” value [5] was 97% and the Tumor/Blood ratio ([6]; 30 min) was 4.67±0.32. It also gave a Tumor/Heart ratio ([6]; 30 min) of 12.31±0.58, a Tumor/Kidney ratio ([6]; 30 min) of 0.63±0.11 and a Tumor/Liver ratio ([6]; 30 min) of 10.58±0.32. The Tumor/Salivary ratio ([6]; 30 min) was 5.23±0.24, the Tumor/Blood ratio ([6]; 60 min) was 5.31±0.54 and the Tumor/Heart ratio ([6]; 60 min) was 31.66±2.2. It also gave a Tumor/Kidney ratio ([6]; 60 min) of 1.22±0.35, a Tumor/Liver ratio ([6]; 60 min) of 23.74±1.90 and a Tumor/Salivary ratio ([6]; 60 min) of 11.50±1.19. For the same compound, the Tumor/Blood ratio ([6]; 120 min) was 30.88±1.36, the Tumor/Heart ratio ([6]; 120 min) was 75.85±3.6 and the Tumor/Kidney ratio ([6]; 120 min) was 2.68±0.22. It also gave a Tumor/Liver ratio ([6]; 120 min) of 41.69±2.9, a Tumor/Salivary ratio ([6]; 120 min) of 45.05±2.56 and an IC50 (PSMA) of 6.13 ± 0.79 nM.
With O=C([O-])CN1CCN(CC(=O)[O-])CCN(CC(=O)NCCOCCOCCOCCOCCOCCOCCOCCOCCNC(=O)CN(CCCC[C@H](NC(=O)N[C@@H](CCC(=O)O)C(=O)O)C(=O)O)C(=O)C2c3ccccc3-c3ccccc32)CCN(CC(=O)[O-])CC1.[177Lu+3] [[^177Lu]Lu-PP8-WD] the “Tumor-to-background ratio in micro-SPECT/CT” value (PC3-PIP tumors [7]) was “favorable tumor-to-background ratio for up to 168 h”.
